In PubChem BioAssay AID1259407 (Chemical Carcinogenesis Research Information System (CCRIS), 2018) one finds mutagenic call data, which are given here for four compounds.

The source made the active and inactive calls. No rule for the calls is given here.

This data set relates to CCRIS mutagenicity, Ames/micronucleus/aberration tests. The data set is described as follows: CCRIS mutagenicity studies.
Setting [1] is: Test System: AMES SALMONELLA TYPHIMURIUM, Strain/Indicator: TA100, Metabolic Activation: NONE, Method: STANDARD PLATE.

For the compound `CCCCCOc1cccc(NC(=O)O[C@@H]2CCCC[C@H]2N2CCCC2)c1`, the mutagenic call (Test System: AMES SALMONELLA TYPHIMURIUM, Strain/Indicator: TA98, Metabolic Activation: MOUSE, LIVER, S-9, AROCLOR 1254, Method: PREINCUBATION) is “inactive; negative”; the mutagenic call (Test System: AMES SALMONELLA TYPHIMURIUM, Strain/Indicator: TA98, Metabolic Activation: NONE, Method: PREINCUBATION) is “inactive; negative”; the mutagenic call (Test System: AMES SALMONELLA TYPHIMURIUM, Strain/Indicator: TA100, Metabolic Activation: MOUSE, LIVER, S-9, AROCLOR 1254, Method: PREINCUBATION) was “inactive; negative”; the mutagenic call (Test System: AMES SALMONELLA TYPHIMURIUM, Strain/Indicator: TA100, Metabolic Activation: NONE, Method: PREINCUBATION) was “inactive; negative”; the mutagenic call (Test System: AMES SALMONELLA TYPHIMURIUM, Strain/Indicator: TA1535, Metabolic Activation: MOUSE, LIVER, S-9, AROCLOR 1254, Method: PREINCUBATION) is “inactive; negative”; the mutagenic call (Test System: AMES SALMONELLA TYPHIMURIUM, Strain/Indicator: TA1535, Metabolic Activation: NONE, Method: PREINCUBATION) was “inactive; negative”. Also, the mutagenic call is, setting by setting: (Test System: AMES SALMONELLA TYPHIMURIUM, Strain/Indicator: TA1538, Metabolic Activation: MOUSE, LIVER, S-9, AROCLOR 1254, Method: PREINCUBATION) “inactive; negative”; (Test System: AMES SALMONELLA TYPHIMURIUM, Strain/Indicator: TA1538, Metabolic Activation: NONE, Method: PREINCUBATION) “inactive; negative”; (Test System: AMES SALMONELLA TYPHIMURIUM, Strain/Indicator: TA1978, Metabolic Activation: MOUSE, LIVER, S-9, AROCLOR 1254, Method: PREINCUBATION) “inactive; negative”; (Test System: AMES SALMONELLA TYPHIMURIUM, Strain/Indicator: TA1978, Metabolic Activation: NONE, Method: PREINCUBATION) “inactive; negative”; (Test System: E. COLI, Strain/Indicator: CM611 UVRA/LEXA, Metabolic Activation: MOUSE, LIVER, S-9, AROCLOR 1254, Method: PREINCUBATION) “inactive; negative”; (Test System: E. COLI, Strain/Indicator: CM611 UVRA/LEXA, Metabolic Activation: NONE, Method: PREINCUBATION) “inactive; negative”. The mutagenic call is, setting by setting: (Test System: E. COLI, Strain/Indicator: WP2, Metabolic Activation: MOUSE, LIVER, S-9, AROCLOR 1254, Method: PREINCUBATION) “inactive; negative”; (Test System: E. COLI, Strain/Indicator: WP2, Metabolic Activation: NONE, Method: PREINCUBATION) “inactive; negative”; (Test System: E. COLI, Strain/Indicator: WP2 UVRA, Metabolic Activation: MOUSE, LIVER, S-9, AROCLOR 1254, Method: PREINCUBATION) “inactive; negative”; (Test System: E. COLI, Strain/Indicator: WP2 UVRA, Metabolic Activation: NONE, Method: PREINCUBATION) “inactive; negative”; (Test System: E. COLI, Strain/Indicator: WP67 UVRA/POLA, Metabolic Activation: MOUSE, LIVER, S-9, AROCLOR 1254, Method: PREINCUBATION) “inactive; negative”; (Test System: E. COLI, Strain/Indicator: WP67 UVRA/POLA, Metabolic Activation: NONE, Method: PREINCUBATION) “inactive; negative”.

`Cn1ccnc1N=O`: under setting [1], the mutagenic call was “active; positive”.

Turning to `C=COC(C)=O`, the mutagenic call was “inactive; negative” (Test System: AMES SALMONELLA TYPHIMURIUM, Strain/Indicator: TA97, Metabolic Activation: NONE, Method: STANDARD PLATE); “inactive; negative” (Test System: AMES SALMONELLA TYPHIMURIUM, Strain/Indicator: TA97, Metabolic Activation: RAT, LIVER, S-9, AROCLOR 1254, Method: STANDARD PLATE); “inactive; negative” (Test System: AMES SALMONELLA TYPHIMURIUM, Strain/Indicator: TA98, Metabolic Activation: NONE, Method: STANDARD PLATE); “inactive; negative” (Test System: AMES SALMONELLA TYPHIMURIUM, Strain/Indicator: TA98, Metabolic Activation: RAT, LIVER, S-9, AROCLOR 1254, Method: STANDARD PLATE); “inactive; negative” under setting [1]; “inactive; negative” (Test System: AMES SALMONELLA TYPHIMURIUM, Strain/Indicator: TA100, Metabolic Activation: RAT, LIVER, S-9, AROCLOR 1254, Method: STANDARD PLATE). Moreover, the mutagenic call by setting is: (Test System: AMES SALMONELLA TYPHIMURIUM, Strain/Indicator: TA102, Metabolic Activation: RAT LIVER S-9, PHENOBARBITAL AND 5,6-BENZOFLAVONE, Method: STANDARD PLATE) “inactive; negative”; (Test System: AMES SALMONELLA TYPHIMURIUM, Strain/Indicator: TA102, Metabolic Activation: RAT, LIVER, S-9, AROCLOR 1254, Method: PREINCUBATION) “active; positive”; (Test System: AMES SALMONELLA TYPHIMURIUM, Strain/Indicator: TA102, Metabolic Activation: RAT, LIVER, S-9, AROCLOR 1254, Method: STANDARD PLATE) “inactive; negative”; (Test System: AMES SALMONELLA TYPHIMURIUM, Strain/Indicator: TA2638, Metabolic Activation: RAT LIVER S-9, PHENOBARBITAL AND 5,6-BENZOFLAVONE, Method: STANDARD PLATE) “inactive; negative”; (Test System: Ames Salmonella typhimurium, Strain/Indicator: TA98, Metabolic Activation: None, Method: Preincubation) “inactive; negative”; (Test System: Ames Salmonella typhimurium, Strain/Indicator: TA98, Metabolic Activation: Rat, Liver, S9, Sodium phenobarbital and 5,6-benzoflavone (10%), Method: Preincubation) “inactive; negative”. Also, the mutagenic call (Test System: Ames Salmonella typhimurium, Strain/Indicator: TA100, Metabolic Activation: None, Method: Preincubation) is “inactive; negative”; the mutagenic call (Test System: Ames Salmonella typhimurium, Strain/Indicator: TA100, Metabolic Activation: Rat, Liver, S9, Sodium phenobarbital and 5,6-benzoflavone (10%), Method: Preincubation) is “inactive; negative”; the mutagenic call (Test System: Ames Salmonella typhimurium, Strain/Indicator: TA1535, Metabolic Activation: None, Method: Preincubation) was “inactive; negative”; the mutagenic call (Test System: Ames Salmonella typhimurium, Strain/Indicator: TA1535, Metabolic Activation: Rat, Liver, S9, Sodium phenobarbital and 5,6-benzoflavone (10%), Method: Preincubation) is “inactive; negative”; the mutagenic call (Test System: Ames Salmonella typhimurium, Strain/Indicator: TA1537, Metabolic Activation: None, Method: Preincubation) was “inactive; negative”; the mutagenic call (Test System: Ames Salmonella typhimurium, Strain/Indicator: TA1537, Metabolic Activation: Rat, Liver, S9, Sodium phenobarbital and 5,6-benzoflavone (10%), Method: Preincubation) is “inactive; negative”. The mutagenic call (Test System: Ames Salmonella typhimurium, Strain/Indicator: YG7108pin3ERb5, Metabolic Activation: None, Method: Standard plate) was “inactive; negative”; the mutagenic call (Test System: E. COLI, Strain/Indicator: WP2 (PKM101), Metabolic Activation: RAT LIVER S-9, PHENOBARBITAL AND 5,6-BENZOFLAVONE, Method: STANDARD PLATE) is “inactive; negative”; the mutagenic call (Test System: E. COLI, Strain/Indicator: WP2 UVRA (PKM101), Metabolic Activation: RAT LIVER S-9, PHENOBARBITAL AND 5,6-BENZOFLAVONE, Method: STANDARD PLATE) was “inactive; negative”; the mutagenic call (Test System: E. coli, Strain/Indicator: WP2uvrA/pKM101, Metabolic Activation: None, Method: Preincubation) is “inactive; negative”; the mutagenic call (Test System: E. coli, Strain/Indicator: WP2uvrA/pKM101, Metabolic Activation: Rat, Liver, S9, Sodium phenobarbital and 5,6-benzoflavone (10%), Method: Preincubation) was “inactive; negative”; the mutagenic call (Test System: MOUSE LYMPHOMA, Strain/Indicator: L5178Y (TK+/TK-), Metabolic Activation: NONE, Method: SUSPENSION/PLATE) is “active; positive. reevaluation of results: positive”. Besides, the mutagenic call (Test System: Mouse lymphoma, Strain/Indicator: L5178Y (tk+/tk-), Metabolic Activation: Rat, Liver, S-9, Aroclor 1254, Method: Suspension/plate) was “active; positive”.

On to `CCCN(CCCCO)N=O`, for which the mutagenic call (Test System: AMES SALMONELLA TYPHIMURIUM, Strain/Indicator: TA1535, Metabolic Activation: RAT, LIVER, S-9, KC500 OR PHENOBARBITAL, Method: LIQUID SUSPENSION) was “active; positive”.
